From patent US20120301443A1, “METHODS FOR DEVELOPING ENDOTHELIAL CELLS FROM PLURIPOTENT CELLS AND ENDOTHELIAL CELLS DERIVED” (CORNELL UNIVERSITY, priority 2009, published 2012)

Assays:
Assay type in all cases: cell-based, human
hESC-derived ECs [1] = assay: Absolute yield and ratio of input hESCs to differentiated ECs over phases 1 and 2
Method: (§1) Embryoid bodies were generated and cultured in base hESC medium, supplemented with the cytokines as shown. Briefly, embryoid bodies were generated in hESC base medium without FGF-2. On the morning following generation of EBs (day 0), medium was supplemented with 20 ng/ml BMP4 (R&D) (removed at day 7); on day 1, medium was supplemented with 10 ng/ml ActivinA (R&D) (removed at day 4); on day 2, medium was supplemented with 8 ng/ml FGF-2 (Peprotech) (remained for the duration of culture); on day 4, EBs were transferred to adherent conditions on Matrigel™-coated plates and medium was supplemented with 25 ng/ml VEGF-A (Peprotech) (remained for the duration of culture); on day 7, SB431542 (Tocris) was added at 10 μM concentration and remained for indicated duration. Cultures were dissociated using 0.5% Trypsin/EDTA (Gibco) or Accutase (eBioscience). Absolute yield as well as ratio of input hESCs to differentiated ECs was calculated from the number of live cells recovered from differentiation cultures at days 0, 14 and 20. Purified ECs could be frozen and thawed in 10% DMSO with greater than 90% recovery.

hESC-derived ECs [2] = assay: Expansion of isolated hESC-derived ECs with or without SB431542 (phase 2)
Method: as §1
(§2) ECs were isolated from differentiation cultures using Magnetic Activated Cell Sorting (MACS; Miltenyi Biotech) with an antibody against CD31 conjugated to magnetic microbeads. Alternatively, cells were isolated by virtue of the expression of GFP/YFP or a fluorophore conjugated antibody to human CD31 or VEGFR2 (BD) using a FACS AriaII (BD).
Cryosections were immunocytochemically stained as previous described (James et al., Dev. Biol. 295: 90-102 (2006)). Briefly, samples were permeabilized in PBST and blocked in 5% donkey serum. Samples were incubated for 2 hours in primary antibodies blocking solution, washed 3 times in PBS and incubated in CY3-conjugated secondary antibodies (Jackson Laboratories) for 1 hour. Following washing some sections were counterstained for nucleic acids by TO-PRO3 (Invitrogen) before mounting and imaging by confocal microscopy. Primary antibodies included CD31 (DAKO), CD34 (DAKO), Phospho-HistoneH3, Smooth Muscle Actin (SMA) (DAKO) and VE-cadherin (R&D). […]

[3] = test system: Id1-YFP hESC-derived CD31+ cells; assay: Id1-YFP hESC-derived CD31+ cells expanded with and without the TGFβ-inhibitor, flow cytometry
Method: A bacterial artificial chromosome (BAC) was modified in order to place yellow fluorescent protein (YFP) under control of the endogenous human Id1 promoter locus. This reporter construct was electroporated into the H9 hESC line, selected for BAC integration using antibiotic resistance and subcloned. Clones were assessed and selected based on expression of YFP in Id1 hESC derivatives following spontaneous differentiation. […] To track Id1 expression in live hESC differentiation cultures, a stable BAC transgenic hESC-line expressing yellow fluorescent protein driven by the Id1-promoter (Id1-YFP) (Example 3 herein) was used (FIG. 3A-C). Differentiated ECs were isolated at day 14 from Id1-YFP cultures (FIG. 1d), sub-fractionating the CD31+ population into Id1-YFP high- and low-expressing cells, and these populations were serially expanded for seven days with and without the TGFβ-inhibitor (FIG. 3B).

hVPr-GFP hESCs = assay: Endothelial (EC) differentiation of hVPr-GFP hESC embryoid bodies (phase 1)
Method: Human VPr-GFP hESCs were grown to confluence on Matrigel™ (BD Bioscience) and then incubated in 5 units/ml dispase (Gibco) until colonies were completely detached from the substrate. Human VPr-GFP EBs were washed and cultured in hESC medium on ultra low attachment plates (Corning) and cultured in the conditions described, with replacement of cytokine supplemented medium every 48 hours. Embryoid bodies were fixed in 4% paraformaldehyde and frozen for cryosectioning and staining.
as §1, with “on day 7, SB431542 (Tocris) was added at 10 μM concentration and remained for indicated” left out
as §2
Total RNA was prepared from cultured cells using the RNeasy™ extraction kit (Qiagen) and reverse transcribed using Superscript II reverse transcriptase (Invitrogen) according to the manufacturer's instructions. Relative quantitative PCR was performed on a 7500 Fast Real Time PCR System (Applied Biosystems) using either TaqMan PCR mix along with Id1 and β-actin primer pairs, or SYBR Green PCR mix (Applied Biosystems). […]
This EC reporter hESC line was also used to monitor the development of a chemically defined, serum-free methodology that could effectively augment vascular differentiation, consisting of two phases. […] Although these growth conditions promoted formation of hVPr-GFP^+ structures, the yield of dissociated hESC-derived ECs obtained by fluorescence-activated cell sorting (FACS) was low, and the few isolated ECs could not be expanded without the majority of derivatives assuming a non-EC phenotype. […]

[4] = ECs isolated at day 14, 5 days with vs without SB431542

NC(=O)c1ccc(-c2nc(-c3ccc4c(c3)OCO4)c(-c3ccccn3)[nH]2)cc1 [SB431542, 4-[4-(1,3-benzodioxol-5-yl)-5-(2-pyridinyl)-1H-imidazol-2-yl]benzamide]
expansion in total number of vascular-committed hESC-derived ECs (hESC-derived ECs [1]; TGFβ inhibition in phase 1 and 2, 20 days, vs control culture conditions): 36 fold
population maintaining EC identity (hESC-derived ECs [1]; after phase 1 and phase 2 TGFβ-inhibition): 95%
ratio of ECs generated from every one hESC input (hESC-derived ECs [1]; over the course of 20 days): 7.4 ECs per input hESC
cell yield of isolated ECs (hESC-derived ECs [2]; ECs isolated at day 14, 5-day culture period with vs without SB431542): yielded more cells
cell proliferation, percentage of Phospho-HistoneH3+ (PHH3) mitotic ECs (hESC-derived ECs [2]; [4]): increased cell proliferation
percentage of total population retaining α-SMA− CD31+ VEcadherin+ phenotype (hESC-derived ECs [2]; [4]): higher percentage
mean fluorescence intensity of CD31 ([3]; relative to unstimulated cells): decreased
percentage of the CD31+ population ([3]; relative to unstimulated cells): increased
Id1 expression (Id1-YFP) ([3]; seven days expansion with and without TGFβ-inhibitor): up-regulation of Id1 expression
Oct3/4 and brachyury transcripts (hVPr-GFP hESCs; QPCR, normalized to ACTB, time course of differentiation): accelerated the reduction
hVPr-GFP+ ECs when inhibitor is included from the onset of differentiation (hVPr-GFP hESCs; SB431542 from day 0): absence of hVPr-GFP+ ECs
hVPr-GFP+CD31+ ECs (hVPr-GFP hESCs; beginning at 9 days): significant increase
expression of SMA (hVPr-GFP hESCs; time course of differentiation): reducing expression of SMA
